Measured values as given in ChEMBL document CHEMBL1127224, “Peptidomimetic inhibitors of human immunodeficiency virus protease (HIV-PR): Design, enzyme binding and selectivity, antiviral efficacy, and cell permeability properties” (Bioorg Med Chem Lett, 1993).

Assays:
CV-1 [1] = test: Antiviral efficacy measured by a hybrid HIV-l/vaccinia virus infected monkey cell line (HIV- l/vVK-1 infected CV- 1) which produces HIV-1 gag-pol derived polyproteins at 10 uM concentration; format: functional, Human immunodeficiency virus 1; settings: Chlorocebus aethiops
CV-1 [2] = test: Antiviral efficacy measured by a hybrid HIV-l/vaccinia virus infected monkey cell line (HIV- l/vVK-1 infected CV- 1) which produces HIV-1 gag-pol derived polyproteins; format: functional, cell-based, Human immunodeficiency virus 1; settings: Chlorocebus aethiops
[3] = target: Human immunodeficiency virus type 1 protease (Human immunodeficiency virus 1, UniProt Q72874); test: Evaluated for inhibitory activity against HIV-1 protease
Pepsin A = Pepsin A (Sus scrofa, UniProt P00791); test: Compound was evaluated for aspartyl protease inhibition selectivity relative to pepsin; design: species or system Homo sapiens
Sequence of Pepsin A (P00791 whole entry): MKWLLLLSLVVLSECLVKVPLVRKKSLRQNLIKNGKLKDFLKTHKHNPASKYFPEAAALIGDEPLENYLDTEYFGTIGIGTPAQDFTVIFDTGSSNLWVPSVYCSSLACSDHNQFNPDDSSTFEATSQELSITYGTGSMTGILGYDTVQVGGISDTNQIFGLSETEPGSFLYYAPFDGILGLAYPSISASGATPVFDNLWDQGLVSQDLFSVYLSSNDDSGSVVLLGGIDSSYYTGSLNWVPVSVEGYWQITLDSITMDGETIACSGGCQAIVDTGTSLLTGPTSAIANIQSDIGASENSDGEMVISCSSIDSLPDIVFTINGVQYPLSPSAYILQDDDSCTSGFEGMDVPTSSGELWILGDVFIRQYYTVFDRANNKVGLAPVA

Renin = target: T1, Renin (Homo sapiens, UniProt P00797); test: Compound was evaluated for aspartyl protease inhibition selectivity relative to renin
T1 sequence (P00797 whole entry): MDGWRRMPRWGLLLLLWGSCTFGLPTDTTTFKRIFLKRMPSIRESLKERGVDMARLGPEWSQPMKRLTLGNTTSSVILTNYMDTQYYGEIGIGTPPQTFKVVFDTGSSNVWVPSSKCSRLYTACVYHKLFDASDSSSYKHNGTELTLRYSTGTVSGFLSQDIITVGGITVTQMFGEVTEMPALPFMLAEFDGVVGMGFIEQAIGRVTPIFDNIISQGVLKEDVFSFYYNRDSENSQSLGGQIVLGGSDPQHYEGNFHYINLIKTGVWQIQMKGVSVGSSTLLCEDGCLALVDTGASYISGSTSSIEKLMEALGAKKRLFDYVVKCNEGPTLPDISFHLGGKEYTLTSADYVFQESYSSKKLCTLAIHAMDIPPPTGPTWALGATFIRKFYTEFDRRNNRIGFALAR

Cathepsin E = target: T2, Cathepsin E (Homo sapiens, UniProt P14091); test: Compound was evaluated for aspartyl protease inhibition selectivity relative to Cathepsin E
T2 sequence (P14091 whole entry): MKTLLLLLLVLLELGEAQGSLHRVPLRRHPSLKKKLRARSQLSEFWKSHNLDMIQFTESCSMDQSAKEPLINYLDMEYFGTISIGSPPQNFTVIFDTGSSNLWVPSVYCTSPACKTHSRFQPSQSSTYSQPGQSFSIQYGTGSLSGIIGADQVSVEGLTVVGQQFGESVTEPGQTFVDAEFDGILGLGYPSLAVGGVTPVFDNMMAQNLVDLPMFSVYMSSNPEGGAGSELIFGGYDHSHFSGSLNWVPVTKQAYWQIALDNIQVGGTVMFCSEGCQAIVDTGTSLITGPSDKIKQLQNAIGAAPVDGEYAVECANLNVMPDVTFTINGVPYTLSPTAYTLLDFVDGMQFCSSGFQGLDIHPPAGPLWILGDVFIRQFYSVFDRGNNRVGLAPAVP

Cathepsin D = Cathepsin D (Homo sapiens, UniProt P07339); test: Compound was evaluated for aspartyl protease inhibition selectivity relative to Cathepsin D
Sequence of Cathepsin D (P07339 65-162 limits assumed): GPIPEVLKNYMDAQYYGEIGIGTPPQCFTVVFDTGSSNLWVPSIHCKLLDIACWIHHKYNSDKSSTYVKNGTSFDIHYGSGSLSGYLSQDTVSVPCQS
Sequence of Cathepsin D (P07339 169-412 limits assumed): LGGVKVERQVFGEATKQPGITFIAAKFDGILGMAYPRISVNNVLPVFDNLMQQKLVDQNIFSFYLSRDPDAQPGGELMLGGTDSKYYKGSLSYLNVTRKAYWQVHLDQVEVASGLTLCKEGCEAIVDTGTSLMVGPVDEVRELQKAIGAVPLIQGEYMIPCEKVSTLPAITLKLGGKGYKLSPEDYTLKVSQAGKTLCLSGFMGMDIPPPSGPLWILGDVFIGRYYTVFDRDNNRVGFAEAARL

| SMILES | inhibition at 10 µM (CV-1 [1]) [%] | IC50 (CV-1 [2]) [µM] | Ki [3] [µM] | Ki (Pepsin A) [µM] | Ki (Renin) [µM] | Ki (Cathepsin E) [µM] | Ki (Cathepsin D) [µM] |
| --- | --- | --- | --- | --- | --- | --- | --- |
| CCC(C)[C@H](NC(=O)[C@@H](C[C@H](O)[C@H](CC1CCCCC1)NC(=O)[C@H](CC(N)=O)NC(=O)c1ccc2ccccc2n1)C(C)C)C(=O)O (some centres undefined) | 0 |  |  |  |  |  |  |
| CCC(C)[C@H](NC(=O)[C@@H](C[C@H](O)[C@H](CC1CCCCC1)NC(=O)COc1ccccc1)C(C)C)C(=O)NCc1ccccn1 (some centres undefined) | 90 | 3 | 0.061 |  |  |  |  |
| CCC(C)[C@H](NC(=O)[C@@H](C[C@H](O)[C@H](CC1CCCCC1)NC(=O)[C@H](Cc1c[nH]cn1)NC(=O)COc1cccc2ccccc12)C(C)C)C(=O)NCc1ccccn1 (some centres undefined) | 100 | 0.3 | 0.005 | 0.29 | 0.002 | 0.05 | 0.2 |
| CCC(C)[C@H](NC(=O)[C@@H](C[C@H](O)[C@H](CC1CCCCC1)NC(=O)[C@H](CC(N)=O)NC(=O)c1ccc2ccccc2n1)C(C)C)C(=O)NCc1ccccn1 (some centres undefined) | 97 | 0.3 | 0.009 | 0.012 | 0.212 | 0.003 | 0.002 |
| CC[C@H](C)[C@H](NC(=O)[C@@H](C[C@H](O)[C@H](CC1CCCCC1)NC(C)=O)C(C)C)C(=O)NCc1ccccn1 | 50 |  | 0.008 |  |  |  |  |
| CCCCCC(=O)N[C@@H](CC1CCCCC1)[C@@H](O)C[C@H](C(=O)N[C@H](C(=O)NCc1ccccn1)C(C)CC)C(C)C (some centres undefined) | 67 | 3 | 0.047 |  |  |  |  |
| CC[C@@H](C)[C@@H](NC(=O)[C@@H](C[C@H](O)[C@H](CC1CCCCC1)NC(C)=O)C(C)C)C(=O)NCc1ccccn1 | 22 |  | > 1 |  |  |  |  |
| CCC(C)[C@H](NC(=O)[C@@H](C[C@H](O)[C@H](CC1CCCCC1)NC(=O)c1ccccn1)C(C)C)C(=O)NCc1ccccn1 (some centres undefined) | 100 | 0.3 | 0.008 |  |  |  |  |
| CC[C@H](C)[C@H](NC(=O)[C@H](C(C)C)[C@@H](O)[C@H](O)[C@H](CC1CCCCC1)NC(=O)[C@H](Cc1c[nH]cn1)NC(=O)COc1cccc2ccccc12)C(=O)NCc1ccccn1 | 100 | 0.2 | < 0.001 | 0.265 | 0.002 | 0.142 | > 1 |
| CC[C@H](C)[C@H](NC(=O)[C@@H](C[C@H](O)[C@H](CC1CCCCC1)NC(C)=O)C(C)C)C(=O)NCc1cccc[n+]1[O-] | 20 |  | 0.016 |  |  |  |  |
| CCC(C)[C@H](NC(=O)[C@@H](C[C@H](O)[C@H](CC1CCCCC1)NC(=O)[C@H](Cc1cn(C)cn1)NC(=O)COc1cccc2ccccc12)C(C)C)C(=O)NCc1ccccn1 (some centres undefined) | 85 | 0.5 | 0.03 |  |  |  |  |
| CCC(C)[C@H](NC(=O)[C@@H](C[C@H](O)[C@H](CC1CCCCC1)NC(=O)[C@H](Cc1cnc[nH]1)NC(=O)OC(C)(C)C)C(C)C)C(=O)NCc1ccccn1 (some centres undefined) | 53 | 10 | 0.01 |  |  |  |  |
| CC[C@H](C)[C@H](NC(=O)[C@@H](C[C@H](O)[C@@H](N)CC1CCCCC1)C(C)C)C(=O)NCc1ccccn1 | 0 |  | 0.8 |  |  |  |  |
| CCC(C)[C@H](NC(=O)[C@@H](C[C@H](O)[C@H](CC1CCCCC1)NC(=O)OC(C)(C)C)C(C)C)C(=O)NCc1ccccn1 (some centres undefined) | 100 | 0.3 | 0.008 | 0.33 | 1.2 | 0.09 | 0.1 |
| CC(C)[C@H](C[C@H](O)[C@H](CC1CCCCC1)NC(=O)C(CC(N)=O)NC(=O)c1ccc2ccccc2n1)C(=O)NCC(C)(C)C (some centres undefined) | 70 | 0.3 | 0.014 |  |  |  |  |
| CCC(C)[C@H](NC(=O)[C@@H](C[C@H](O)[C@H](CC1CCCCC1)NC(=O)[C@H](CC(N)=O)NC(=O)COc1cccc2ccccc12)C(C)C)C(=O)NCc1ccccn1 (some centres undefined) | 93 | 0.3 | 0.004 |  |  |  |  |
| CCC(C)[C@H](NC(=O)[C@@H](C[C@H](O)[C@H](CC1CCCCC1)NC(=O)CC(C)(C)C)C(C)C)C(=O)NCc1ccccn1 (some centres undefined) | 75 | 3 | 0.075 |  |  |  |  |
| CCC(C)[C@H](NC(=O)[C@@H](C[C@H](O)[C@H](CC1CCCCC1)NC(=O)[C@@H](NC(=O)COc1cccc2ccccc12)C(C)C)C(C)C)C(=O)NCc1ccccn1 (some centres undefined) | 93 | 0.3 | 0.061 |  |  |  |  |
